Data taken from publication PMC4448990 (Pharmacology Research & Perspectives, 2015).

Assays:
Dopamine, D3 = assay: in vitro selectivity profile; assay type: binding; details: eslicarbazepine 400 μmol/L
[1] = target: Adenosine transporter (h) (Homo sapiens, UniProt Q99808); assay: in vitro selectivity profile; assay type: binding
[2] = tested on: transient Na+ current (INaT); details: ref Döser et al. [2013b], [2015]; cited from earlier work
Kinase, protein, PKA (h) = Kinase, protein, PKA (h) (Homo sapiens, UniProt P17612); assay: in vitro selectivity profile; assay type: biochemical
[3] = target: human α3β2γ2 GABAA receptors (Homo sapiens, UniProt P18507+P34903+P47870); assay: submaximal GABA currents in Ltk cells; assay type: cell-based
Sigma 1 = assay: in vitro selectivity profile; assay type: binding; details: eslicarbazepine 400 μmol/L
[4] = eslicarbazepine; ref Bialer and Soares-da-Silva [2012]; cited from earlier work
[5] = cited from earlier work
[6] = target: Protease, caspase, CASP-8 (h) (Homo sapiens, UniProt Q14790); assay: in vitro selectivity profile; assay type: biochemical
Dopamine, D1 (h) = Dopamine, D1 (h) (Homo sapiens, UniProt P21728); assay: in vitro selectivity profile; assay type: binding
[7] = tested on: Corticotropin-releasing factor, nonselective; assay: in vitro selectivity profile; assay type: binding; details: eslicarbazepine 400 μmol/L
Serotonin, 5HT6 (h) = Serotonin, 5HT6 (h) (Homo sapiens, UniProt P50406); assay: in vitro selectivity profile; assay type: binding
Cannabinoid, CB1 (h) = Cannabinoid, CB1 (h) (Homo sapiens, UniProt P21554); assay: in vitro selectivity profile; assay type: binding
[8] = target: Protease, caspase, CASP-2 (h) (Homo sapiens, UniProt P42575); assay: in vitro selectivity profile; assay type: biochemical
[9] = tested on: Inositol triphosphate, IP3; assay: in vitro selectivity profile; assay type: binding; details: eslicarbazepine 400 μmol/L
Sodium, site 2 = assay: in vitro selectivity profile; assay type: binding; details: eslicarbazepine 400 μmol/L
[10] = target: Kinase, protein, CK1d (CSNK1D) (h) (Homo sapiens, UniProt P48730); assay: in vitro selectivity profile; assay type: biochemical
[11] = target: Kinase, protein, SGK1 (h) (Homo sapiens, UniProt O00141); assay: in vitro selectivity profile; assay type: biochemical
Melatonin, nonselective = assay: in vitro selectivity profile; assay type: binding; details: eslicarbazepine 400 μmol/L
Kinase, protein, Fyn (h) = Kinase, protein, Fyn (h) (Homo sapiens, UniProt P06241); assay: in vitro selectivity profile; assay type: biochemical
Opioid, delta 2 (h) = Opioid, delta 2 (h) (Homo sapiens, UniProt P41143); assay: in vitro selectivity profile; assay type: binding
[12] = tested on: Serotonin, 5HT1, nonselective; assay: in vitro selectivity profile; assay type: binding; details: eslicarbazepine 400 μmol/L
[13] = target: Kinase, protein, MAPK1 (ERK2, p42mapk) (h) (Homo sapiens, UniProt P28482); assay: in vitro selectivity profile; assay type: biochemical
[14] = tested on: GABA A, BDZ, alpha 6 site; assay: in vitro selectivity profile; assay type: binding; details: eslicarbazepine 400 μmol/L
Sigma 2 = assay: in vitro selectivity profile; assay type: binding; details: eslicarbazepine 400 μmol/L
[15] = target: Esterase, acetylcholine (h) (Homo sapiens, UniProt P22303); assay: in vitro selectivity profile; assay type: biochemical
Serotonin, 5HT3 = assay: in vitro selectivity profile; assay type: binding; details: eslicarbazepine 400 μmol/L
[16] = tested on: Decarboxylase, glutamic acid; assay: in vitro selectivity profile; assay type: biochemical; details: eslicarbazepine 400 μmol/L
Muscarinic, M1 (h) = Muscarinic, M1 (h) (Homo sapiens, UniProt P11229); assay: in vitro selectivity profile; assay type: binding
Dopamine, D2s (h) = Dopamine, D2s (h) (Homo sapiens, UniProt P14416); assay: in vitro selectivity profile; assay type: binding
Serotonin, 5HT1D (h) = Serotonin, 5HT1D (h) (Homo sapiens, UniProt P28221); assay: in vitro selectivity profile; assay type: binding
Neurokinin, NK3 (NKB) = assay: in vitro selectivity profile; assay type: binding; details: eslicarbazepine 400 μmol/L
Adenosine, A2A (h) = Adenosine, A2A (h) (Homo sapiens, UniProt P29274); assay: in vitro selectivity profile; assay type: binding
Glutamate, mGluR5 = assay: in vitro selectivity profile; assay type: binding; details: eslicarbazepine 400 μmol/L
Adenosine, A1 (h) = Adenosine, A1 (h) (Homo sapiens, UniProt P30542); assay: in vitro selectivity profile; assay type: binding
[17] = target: Kinase, protein, PKCb2 (h) (Homo sapiens, UniProt P05771); assay: in vitro selectivity profile; assay type: biochemical
[18] = target: Serotonin transporter (h) (Homo sapiens, UniProt P31645); assay: in vitro selectivity profile; assay type: binding

Chain of human α3β2γ2 GABAA receptors (P34903 29-492): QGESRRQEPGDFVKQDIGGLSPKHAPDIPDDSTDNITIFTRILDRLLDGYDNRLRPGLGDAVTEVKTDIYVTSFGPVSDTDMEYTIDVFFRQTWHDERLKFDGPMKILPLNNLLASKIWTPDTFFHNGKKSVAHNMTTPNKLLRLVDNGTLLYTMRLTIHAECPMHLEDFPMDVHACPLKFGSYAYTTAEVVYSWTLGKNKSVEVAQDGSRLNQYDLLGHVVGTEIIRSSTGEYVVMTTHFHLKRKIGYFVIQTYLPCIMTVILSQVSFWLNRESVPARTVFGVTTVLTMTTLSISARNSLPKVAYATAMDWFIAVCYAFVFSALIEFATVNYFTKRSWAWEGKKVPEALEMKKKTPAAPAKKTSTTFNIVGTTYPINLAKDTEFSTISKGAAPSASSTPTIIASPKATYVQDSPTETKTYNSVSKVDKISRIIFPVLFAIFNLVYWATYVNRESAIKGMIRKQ
Chain of human α3β2γ2 GABAA receptors (P47870 25-512 limits assumed): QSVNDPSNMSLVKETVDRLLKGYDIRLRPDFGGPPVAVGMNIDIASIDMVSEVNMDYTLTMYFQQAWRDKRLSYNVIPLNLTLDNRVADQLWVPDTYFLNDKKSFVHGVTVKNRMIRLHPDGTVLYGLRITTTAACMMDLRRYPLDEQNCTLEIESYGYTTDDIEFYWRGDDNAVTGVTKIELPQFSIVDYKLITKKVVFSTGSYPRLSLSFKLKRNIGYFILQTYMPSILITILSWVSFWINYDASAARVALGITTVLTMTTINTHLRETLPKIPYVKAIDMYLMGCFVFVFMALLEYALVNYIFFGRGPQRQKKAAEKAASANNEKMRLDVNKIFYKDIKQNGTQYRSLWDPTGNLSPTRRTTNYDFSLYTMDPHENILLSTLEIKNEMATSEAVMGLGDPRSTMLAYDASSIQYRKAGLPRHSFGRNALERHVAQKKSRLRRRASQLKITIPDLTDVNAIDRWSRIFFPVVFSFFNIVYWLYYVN
Chain of human α3β2γ2 GABAA receptors (P18507 40-475): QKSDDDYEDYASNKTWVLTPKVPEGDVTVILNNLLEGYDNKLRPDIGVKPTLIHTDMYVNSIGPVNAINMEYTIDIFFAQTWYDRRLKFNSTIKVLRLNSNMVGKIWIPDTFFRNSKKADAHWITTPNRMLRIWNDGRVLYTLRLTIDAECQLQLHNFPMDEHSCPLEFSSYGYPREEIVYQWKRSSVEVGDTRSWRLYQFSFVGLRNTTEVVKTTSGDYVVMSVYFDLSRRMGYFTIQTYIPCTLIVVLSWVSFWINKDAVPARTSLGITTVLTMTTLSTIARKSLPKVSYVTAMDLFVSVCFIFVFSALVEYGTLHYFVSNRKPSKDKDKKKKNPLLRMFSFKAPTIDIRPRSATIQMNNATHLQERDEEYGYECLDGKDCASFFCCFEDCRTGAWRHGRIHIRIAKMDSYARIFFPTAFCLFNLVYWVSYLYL
Chain of Kinase, protein, Fyn (h) (P06241 whole entry): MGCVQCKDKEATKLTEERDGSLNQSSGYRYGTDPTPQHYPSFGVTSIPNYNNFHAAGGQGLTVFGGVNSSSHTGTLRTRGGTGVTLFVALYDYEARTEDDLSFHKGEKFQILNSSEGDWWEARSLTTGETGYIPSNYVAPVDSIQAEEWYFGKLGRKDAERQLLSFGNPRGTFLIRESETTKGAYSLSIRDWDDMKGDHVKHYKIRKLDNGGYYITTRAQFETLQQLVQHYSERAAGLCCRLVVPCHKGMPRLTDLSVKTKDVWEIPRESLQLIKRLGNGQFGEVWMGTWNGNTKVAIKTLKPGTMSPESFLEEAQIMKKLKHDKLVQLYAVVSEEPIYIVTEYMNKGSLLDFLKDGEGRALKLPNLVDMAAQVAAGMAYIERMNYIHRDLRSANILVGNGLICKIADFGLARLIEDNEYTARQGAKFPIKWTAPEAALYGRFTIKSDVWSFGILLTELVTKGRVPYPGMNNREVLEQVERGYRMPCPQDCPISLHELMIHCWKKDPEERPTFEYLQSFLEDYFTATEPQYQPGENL
Chain of Dopamine, D1 (h) (P21728 whole entry): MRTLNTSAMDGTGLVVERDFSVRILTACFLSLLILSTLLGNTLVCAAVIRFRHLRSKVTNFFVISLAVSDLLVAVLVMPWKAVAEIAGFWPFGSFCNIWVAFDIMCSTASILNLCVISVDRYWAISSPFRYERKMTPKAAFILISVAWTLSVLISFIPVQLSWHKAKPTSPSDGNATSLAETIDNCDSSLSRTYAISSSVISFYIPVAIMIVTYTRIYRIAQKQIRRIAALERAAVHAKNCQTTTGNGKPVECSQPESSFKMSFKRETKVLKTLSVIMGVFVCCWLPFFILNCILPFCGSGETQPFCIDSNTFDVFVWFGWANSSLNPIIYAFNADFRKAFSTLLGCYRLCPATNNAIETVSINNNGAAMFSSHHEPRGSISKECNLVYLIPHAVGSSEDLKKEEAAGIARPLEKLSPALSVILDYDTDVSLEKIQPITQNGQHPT
Chain of Adenosine transporter (h) (Q99808 whole entry): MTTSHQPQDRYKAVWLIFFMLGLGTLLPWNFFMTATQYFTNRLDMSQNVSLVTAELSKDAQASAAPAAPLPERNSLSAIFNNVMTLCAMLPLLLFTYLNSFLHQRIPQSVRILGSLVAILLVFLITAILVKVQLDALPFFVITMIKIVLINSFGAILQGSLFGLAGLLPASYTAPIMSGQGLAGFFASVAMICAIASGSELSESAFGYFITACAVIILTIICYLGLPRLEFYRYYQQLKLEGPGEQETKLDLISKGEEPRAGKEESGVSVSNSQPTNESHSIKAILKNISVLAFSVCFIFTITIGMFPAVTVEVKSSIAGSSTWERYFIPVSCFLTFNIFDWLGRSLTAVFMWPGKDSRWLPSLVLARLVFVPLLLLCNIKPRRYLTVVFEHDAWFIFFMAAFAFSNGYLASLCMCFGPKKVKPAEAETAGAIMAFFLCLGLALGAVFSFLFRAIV
Chain of Kinase, protein, PKCb2 (h) (P05771 1-673 isoform P05771-2): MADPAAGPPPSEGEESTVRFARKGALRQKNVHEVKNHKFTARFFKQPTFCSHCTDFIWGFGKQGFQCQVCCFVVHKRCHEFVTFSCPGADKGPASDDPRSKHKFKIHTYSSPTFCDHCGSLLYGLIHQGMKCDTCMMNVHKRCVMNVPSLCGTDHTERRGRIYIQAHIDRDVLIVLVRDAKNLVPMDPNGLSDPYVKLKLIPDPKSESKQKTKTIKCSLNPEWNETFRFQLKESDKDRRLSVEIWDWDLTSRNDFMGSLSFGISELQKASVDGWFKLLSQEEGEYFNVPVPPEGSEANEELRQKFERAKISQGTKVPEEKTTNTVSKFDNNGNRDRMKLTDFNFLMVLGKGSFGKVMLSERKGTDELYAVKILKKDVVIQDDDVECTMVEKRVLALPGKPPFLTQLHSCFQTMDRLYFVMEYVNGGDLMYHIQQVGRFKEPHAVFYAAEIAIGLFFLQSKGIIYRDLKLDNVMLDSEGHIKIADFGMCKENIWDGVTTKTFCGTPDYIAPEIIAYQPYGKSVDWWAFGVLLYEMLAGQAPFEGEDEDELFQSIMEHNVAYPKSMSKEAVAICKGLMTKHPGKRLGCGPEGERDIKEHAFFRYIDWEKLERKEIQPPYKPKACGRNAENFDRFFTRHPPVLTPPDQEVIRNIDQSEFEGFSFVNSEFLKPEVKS
Chain of Kinase, protein, MAPK1 (ERK2, p42mapk) (h) (P28482 whole entry): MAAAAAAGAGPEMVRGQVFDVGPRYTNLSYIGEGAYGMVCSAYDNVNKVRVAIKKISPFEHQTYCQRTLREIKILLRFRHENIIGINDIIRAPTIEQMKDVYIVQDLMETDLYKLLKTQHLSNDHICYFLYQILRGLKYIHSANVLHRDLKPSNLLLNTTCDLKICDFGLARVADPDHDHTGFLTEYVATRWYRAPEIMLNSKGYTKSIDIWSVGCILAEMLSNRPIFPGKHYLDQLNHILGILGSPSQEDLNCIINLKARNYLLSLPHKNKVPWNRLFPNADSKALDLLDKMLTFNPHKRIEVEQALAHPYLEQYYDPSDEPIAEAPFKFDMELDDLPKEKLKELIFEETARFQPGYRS
Chain of Cannabinoid, CB1 (h) (P21554 whole entry): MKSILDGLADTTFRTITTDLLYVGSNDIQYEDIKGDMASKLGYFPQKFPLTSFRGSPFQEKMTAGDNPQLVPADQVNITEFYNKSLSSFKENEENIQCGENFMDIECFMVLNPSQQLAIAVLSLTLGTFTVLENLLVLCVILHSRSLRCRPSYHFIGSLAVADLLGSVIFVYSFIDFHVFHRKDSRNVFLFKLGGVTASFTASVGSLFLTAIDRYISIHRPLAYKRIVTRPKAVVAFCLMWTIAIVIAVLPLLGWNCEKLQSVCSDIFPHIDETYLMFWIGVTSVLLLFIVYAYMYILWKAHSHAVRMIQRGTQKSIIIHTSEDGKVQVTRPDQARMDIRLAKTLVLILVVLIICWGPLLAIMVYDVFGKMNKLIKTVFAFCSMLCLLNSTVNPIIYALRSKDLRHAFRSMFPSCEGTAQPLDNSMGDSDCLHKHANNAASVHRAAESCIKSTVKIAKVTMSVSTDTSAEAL
Chain of Dopamine, D2s (h) (P14416 1-414 isoform P14416-2): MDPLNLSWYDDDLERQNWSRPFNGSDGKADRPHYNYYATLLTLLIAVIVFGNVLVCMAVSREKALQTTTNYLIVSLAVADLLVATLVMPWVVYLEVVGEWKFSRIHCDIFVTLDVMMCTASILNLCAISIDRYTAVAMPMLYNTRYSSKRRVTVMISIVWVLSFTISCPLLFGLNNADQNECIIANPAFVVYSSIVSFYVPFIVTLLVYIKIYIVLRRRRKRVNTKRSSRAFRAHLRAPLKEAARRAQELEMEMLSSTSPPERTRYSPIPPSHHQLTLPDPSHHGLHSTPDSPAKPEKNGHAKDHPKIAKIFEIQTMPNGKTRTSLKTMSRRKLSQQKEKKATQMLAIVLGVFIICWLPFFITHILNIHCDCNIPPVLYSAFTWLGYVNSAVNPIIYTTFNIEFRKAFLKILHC

NC(=O)N1c2ccccc2C[C@H](O)c2ccccc21 [eslicarbazepine]
% inhibition (Dopamine, D3): 0.0% | inhibition at 400 µM [1]: 10.1% | inhibition of firing of DGCs, control versus pilocarpine-treated rats [2]: equally effective in inhibiting firing of DGCs in control versus pilocarpine-treated rats | inhibition at 400 µM (Kinase, protein, PKA (h)): 3.67% | GABA inward current stimulation, α3β2γ2, Mean ± SEM ([3]; 50 μmol/L): 95.6 ± 4.8 | GABA inward current stimulation, α3β2γ2, Mean ± SEM ([3]; 100 μmol/L): 97.9 ± 4.2 | GABA inward current stimulation, α3β2γ2, Mean ± SEM ([3]; 250 μmol/L): 96.4 ± 2.2 | GABA inward current stimulation, α3β2γ2, Mean ± SEM ([3]; 500 μmol/L): 91.6 ± 5.6 | effect on submaximal α3β2γ2 GABA currents ([3]; 50–500 μmol/L): did not significantly change submaximal GABA currents | % inhibition (Sigma 1): 28.43% | binding to nonspecific proteins (protein binding) [4]: ~30% | CSF Cmax eslicarbazepine levels ([5]; 1200 mg QD oral ESL, ref Nunes et al. [2013]): 30 µmol/L | share of circulating active moieties after oral ESL ([5]; humans, ref Almeida and Soares-da-Silva [2007]): ~95% | peak plasma concentrations of eslicarbazepine ([5]; oral ESL 1200 mg QD, ref Perucca et al. [2011]): 90 µmol/L | inhibition at 400 µM [6]: 0% | inhibition at 400 µM (Dopamine, D1 (h)): 6.85% | % inhibition [7]: 26.95% | inhibition at 400 µM (Serotonin, 5HT6 (h)): 5.86% | inhibition at 400 µM (Cannabinoid, CB1 (h)): 20.4% | inhibition at 400 µM [8]: 0% | % inhibition [9]: 0.45% | % inhibition (Sodium, site 2): 34.46% | inhibition at 400 µM [10]: 5.18% | inhibition at 400 µM [11]: 5.7% | % inhibition (Melatonin, nonselective): 17.43% | inhibition at 400 µM (Kinase, protein, Fyn (h)): 3.58% | inhibition at 400 µM (Opioid, delta 2 (h)): 7.91% | % inhibition [12]: 11.43% | inhibition at 400 µM [13]: 0% | % inhibition [14]: 0.0% | % inhibition (Sigma 2): 6.11% | inhibition at 400 µM [15]: 0% | % inhibition (Serotonin, 5HT3): 10.41% | % inhibition [16]: 0.0% | inhibition at 400 µM (Muscarinic, M1 (h)): 0% | inhibition at 400 µM (Dopamine, D2s (h)): 0% | inhibition at 400 µM (Serotonin, 5HT1D (h)): 16.4% | % inhibition (Neurokinin, NK3 (NKB)): 0.0% | inhibition at 400 µM (Adenosine, A2A (h)): 6.81% | % inhibition (Glutamate, mGluR5): 14.42% | inhibition at 400 µM (Adenosine, A1 (h)): 32.3% | inhibition at 400 µM [17]: 0% | inhibition at 400 µM [18]: 0%
